In patent publication US9365588B2, “Benzoxazines as modulators of ion channels” (Vertex Pharmaceuticals Incorporated, priority 2011, dated 2016):

Target: human NaV 1.7 (Homo sapiens, UniProt Q15858)
Assay: E-VIPR optical membrane potential assay with electrical stimulation
Type: cell-based
Conditions: sodium channel inhibition; read-out: Binned Activity Data (IC50)
Procedure, shortened: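 Membrane-potential read-out: background-subtracted 460 nm/580 nm ratio during a 9 s current-controlled stimulus, 400 Hz scan. Before stimulation, NaV1.7-HEK cells carried coumarin/oxonol dye and compound (final DMSO 0.625%) for 20–35 min at room temperature; tetracaine 125 μM served as positive control.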

Chain of human NaV 1.7 (Q15858 whole entry): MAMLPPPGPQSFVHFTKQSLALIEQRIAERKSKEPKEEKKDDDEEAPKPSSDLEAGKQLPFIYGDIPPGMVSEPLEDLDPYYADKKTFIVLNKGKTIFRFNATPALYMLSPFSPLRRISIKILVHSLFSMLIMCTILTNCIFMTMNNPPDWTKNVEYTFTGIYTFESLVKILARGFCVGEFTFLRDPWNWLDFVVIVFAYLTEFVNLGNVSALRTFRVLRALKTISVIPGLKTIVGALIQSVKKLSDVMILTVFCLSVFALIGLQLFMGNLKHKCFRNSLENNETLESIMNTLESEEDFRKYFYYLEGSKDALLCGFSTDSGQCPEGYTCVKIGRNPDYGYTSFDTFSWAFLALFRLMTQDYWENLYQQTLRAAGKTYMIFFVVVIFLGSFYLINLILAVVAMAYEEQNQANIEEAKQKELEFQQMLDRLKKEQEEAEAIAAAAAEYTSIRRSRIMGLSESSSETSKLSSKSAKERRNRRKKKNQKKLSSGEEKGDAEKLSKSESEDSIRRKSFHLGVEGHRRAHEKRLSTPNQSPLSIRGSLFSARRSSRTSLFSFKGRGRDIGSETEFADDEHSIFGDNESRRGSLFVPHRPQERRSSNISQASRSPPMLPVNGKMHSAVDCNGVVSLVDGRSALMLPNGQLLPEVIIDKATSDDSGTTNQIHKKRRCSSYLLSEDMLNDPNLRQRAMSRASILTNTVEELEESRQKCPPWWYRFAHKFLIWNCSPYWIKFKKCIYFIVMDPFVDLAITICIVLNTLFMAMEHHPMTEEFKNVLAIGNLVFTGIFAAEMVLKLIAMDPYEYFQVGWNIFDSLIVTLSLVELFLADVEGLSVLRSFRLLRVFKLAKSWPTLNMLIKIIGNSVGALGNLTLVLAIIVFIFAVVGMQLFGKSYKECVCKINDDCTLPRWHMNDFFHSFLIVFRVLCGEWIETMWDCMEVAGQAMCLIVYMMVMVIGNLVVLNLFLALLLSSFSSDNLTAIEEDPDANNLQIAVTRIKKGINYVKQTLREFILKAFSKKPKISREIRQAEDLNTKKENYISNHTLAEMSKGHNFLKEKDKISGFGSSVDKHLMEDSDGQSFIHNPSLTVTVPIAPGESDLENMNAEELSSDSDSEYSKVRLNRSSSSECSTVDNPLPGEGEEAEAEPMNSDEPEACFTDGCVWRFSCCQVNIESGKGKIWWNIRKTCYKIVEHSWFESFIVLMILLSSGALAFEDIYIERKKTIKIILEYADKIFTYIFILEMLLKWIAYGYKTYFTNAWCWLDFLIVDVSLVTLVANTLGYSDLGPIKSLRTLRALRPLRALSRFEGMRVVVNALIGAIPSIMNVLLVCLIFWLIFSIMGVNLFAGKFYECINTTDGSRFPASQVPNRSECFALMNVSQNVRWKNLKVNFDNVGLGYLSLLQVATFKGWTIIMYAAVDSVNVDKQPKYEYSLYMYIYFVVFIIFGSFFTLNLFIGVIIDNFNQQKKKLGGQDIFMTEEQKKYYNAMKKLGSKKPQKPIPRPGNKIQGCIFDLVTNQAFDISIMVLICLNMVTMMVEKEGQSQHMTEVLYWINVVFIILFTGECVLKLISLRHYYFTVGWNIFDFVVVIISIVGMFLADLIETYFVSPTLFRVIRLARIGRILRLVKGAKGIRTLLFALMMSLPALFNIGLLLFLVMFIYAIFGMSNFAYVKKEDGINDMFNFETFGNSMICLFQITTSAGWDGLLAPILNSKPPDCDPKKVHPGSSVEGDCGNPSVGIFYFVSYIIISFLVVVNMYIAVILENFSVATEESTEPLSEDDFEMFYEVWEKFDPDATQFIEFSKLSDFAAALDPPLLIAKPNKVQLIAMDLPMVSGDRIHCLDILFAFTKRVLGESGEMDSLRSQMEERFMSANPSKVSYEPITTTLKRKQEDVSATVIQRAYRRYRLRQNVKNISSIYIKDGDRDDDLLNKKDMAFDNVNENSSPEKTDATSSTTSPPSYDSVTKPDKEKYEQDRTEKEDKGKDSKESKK

Row | SMILES | IC50
1 | CCn1ncc2c1-c1ccccc1OC21CCN(C(=O)c2cccc(F)c2OC(F)F)CC1 [Compound 528] | ≤ 2000 nM
2 | COc1cc(C(=O)N2CCC3(CC2)Oc2cc(Cl)ccc2-n2cccc23)ccc1C(C)(C)C [Compound 529] | ≤ 2000 nM
3 | N#Cc1ccc2n1-c1ccccc1OC21CCN(C(=O)c2ccc(S(=O)(=O)C(F)F)cc2)CC1 [Compound 530] | ≤ 2000 nM
4 | CC(C)Oc1ccc(C(=O)N2CCC3(CC2)Oc2ccccc2-n2c(C(F)(F)F)ccc23)cc1CO [Compound 531] | ≤ 2000 nM
5 | COCCOc1cc(F)c(C(=O)N2CCC3(CC2)Oc2ccccc2-n2cccc23)cc1OC [Compound 532] | ≤ 2000 nM
6 | COc1cc(C(=O)N2CCC3(CC2)Oc2cccnc2-n2cccc23)ccc1O[C@@H]1CCOC1 [Compound 533] | ≤ 2000 nM
7 | COc1cc(OC)cc(C(=O)N2CCC3(CC2)Oc2cc(Cl)ccc2-n2cccc23)c1 [Compound 534] | ≤ 2000 nM
8 | O=C(c1cccnc1N1CCCC1)N1CCC2(CC1)Oc1ccccc1-n1c(C(F)(F)F)ccc12 [Compound 535] | ≤ 2000 nM
9 | CC(C)(C)c1ccc(C(=O)N2CCC3(CC2)Oc2cc(F)ccc2-n2cccc23)cc1C#N [Compound 536] | ≤ 2000 nM
10 | COc1cc(C(=O)N2CCC3(CC2)Oc2ccccc2-c2c3cnn2C)ccc1C(C)(C)O [Compound 537] | ≤ 2000 nM
11 | Cc1cc(C(=O)N2CCC3(CC2)Oc2ccccc2-n2cccc23)ccc1OC(C)(C)C [Compound 538] | ≤ 2000 nM
12 | N#Cc1ccc2n1-c1ccccc1OC21CCN(C(=O)c2ccc(S(=O)(=O)NCCCO)cc2)CC1 [Compound 540] | 2000 to 5000 nM
13 | O=C(c1ccc(S(=O)(=O)NC2CC2)cc1)N1CCC2(CC1)Oc1ccccc1-n1c(C(F)(F)F)ccc12 [Compound 541] | ≤ 2000 nM
14 | COc1ccc(C(=O)N2CCC3(CC2)Oc2ccccc2-n2cccc23)cc1S(N)(=O)=O [Compound 542] | 2000 to 5000 nM
15 | Cc1cc(C(=O)N2CCC3(CC2)Oc2ccccc2-c2c3cnn2C)ccc1S(=O)(=O)C(C)C [Compound 543] | ≤ 2000 nM
16 | COc1c(F)cccc1C(=O)N1CCC2(CC1)Oc1ccccc1-c1c2cnn1C(C)C [Compound 544] | ≤ 2000 nM
17 | CCc1ccccc1C(=O)N1CCC2(CC1)Oc1ccccc1-c1c2cnn1C [Compound 546] | ≤ 2000 nM
18 | Cc1cc(C(=O)N2CCC3(CC2)Oc2cc(Cl)ccc2-n2cccc23)ccc1OCC1CCCO1 (stereo not drawn) [Compound 547] | ≤ 2000 nM
19 | Cc1cc(C#N)n2c1C1(CCN(C(=O)c3ccc(S(=O)(=O)C(C)C)cc3)CC1)Oc1ccccc1-2 [Compound 549] | ≤ 2000 nM
20 | Cn1ncc2c1-c1ccccc1OC21CCN(C(=O)c2cnn(-c3ccccc3)c2C(F)(F)F)CC1 [Compound 550] | 2000 to 5000 nM
21 | O=C(c1ccnc(N2CCCCC2)c1)N1CCC2(CC1)Oc1ccccc1-n1cccc12 [Compound 551] | ≤ 2000 nM
22 | COCCn1ccc(C(=O)N2CCC3(CC2)Oc2cc(Cl)ccc2-n2cccc23)cc1=O [Compound 552] | ≤ 2000 nM
23 | COc1cc(C(=O)N2CCC3(CC2)Oc2ccccc2-c2[nH]ncc23)ccc1OC(C)(C)C [Compound 553] | 2000 to 5000 nM
24 | Cc1cc(C(=O)N2CCC3(CC2)Oc2ccccc2-n2c3ccc2S(C)(=O)=O)ccc1OC(C)C [Compound 554] | ≤ 2000 nM
25 | CCc1ccc(C(=O)N2C3CCC2CC2(C3)Oc3ccccc3-n3cccc32)cc1OC (stereo not drawn) [Compound 555] | ≤ 2000 nM

Row | SMILES | IC50
26 | O=C(c1ccc2[nH]ncc2c1)N1CCC2(CC1)Oc1ccccc1-n1c(C(F)(F)F)ccc12 [Compound 556] | 2000 to 5000 nM
27 | COc1cc(C(=O)N2CCC3(CC2)Oc2ccccc2-c2c3cnn2C)ccc1S(=O)(=O)C(C)(C)C [Compound 557] | ≤ 2000 nM
28 | CNS(=O)(=O)c1ccc(C(=O)N2CCC3(CC2)Oc2ccccc2-n2c(C(F)(F)F)ccc23)cc1C [Compound 558] | ≤ 2000 nM
29 | CC(C)Oc1ccc(C(=O)N2CCC3(CC2)Oc2ccccc2-n2c(C#N)ccc23)cc1CO [Compound 559] | ≤ 2000 nM
30 | COc1cc(F)c(C(=O)N2CCC3(CC2)Oc2cc(Cl)ccc2-n2cccc23)cc1OC [Compound 561] | ≤ 2000 nM
31 | Cc1cc(C(=O)N2CCC3(CC2)Oc2ccccc2-n2cccc23)ccc1C#N [Compound 562] | ≤ 2000 nM
32 | CCc1ccc(C(=O)N2CCC3(CC2)Oc2ccccc2-n2c(C(F)(F)F)ccc23)nc1 [Compound 564] | 2000 to 5000 nM
33 | Cc1ccc(C(=O)N2CCC3(CC2)Oc2ccccc2-n2c(C(F)(F)F)ccc23)nc1 [Compound 566] | > 5000 nM
34 | COc1cc(C(=O)N2CCC3(CC2)Oc2cc(F)ccc2-n2cccc23)ccc1C(C)(C)OC [Compound 567] | ≤ 2000 nM
35 | COc1ccc(C(=O)N2CCC3(CC2)Oc2ccccc2-c2c3ccn2C)cc1C(F)(F)F [Compound 568] | ≤ 2000 nM
36 | Cn1ncc2c1-c1ccccc1OC21CCN(C(=O)c2ccc(OC3COC3)c(F)c2)CC1 [Compound 569] | > 5000 nM
37 | COc1cc(C(=O)N2CCC3(CC2)Oc2ccccc2-n2cccc23)ccc1OC(C)(C)C#N [Compound 570] | ≤ 2000 nM
38 | C[C@](O)(CO)c1ccc(C(=O)N2CCC3(CC2)Oc2ccccc2-n2c(C#N)ccc23)cc1 [Compound 571] | ≤ 2000 nM
39 | CC(C)(O)c1ccc(C(=O)N2CCC3(CC2)Oc2ccccc2-n2c(C(F)(F)F)ccc23)cc1CO [Compound 572] | 2000 to 5000 nM
40 | COc1cc(C(=O)N2CCC3(CC2)Oc2ccccc2-n2cccc23)ccc1C(C)(C)C [Compound 573] | ≤ 2000 nM
41 | COc1cc(C(F)(F)F)ccc1C(=O)N1CCC2(CC1)Oc1ccccc1-c1c2cnn1C [Compound 574] | ≤ 2000 nM
42 | COc1cc(OC)c(C(=O)N2CCC3(CC2)Oc2cc(Cl)ccc2-n2cccc23)cc1CO [Compound 576] | ≤ 2000 nM
43 | COc1ccc(C(=O)N2CCC3(CC2)Oc2cc(Cl)ccc2-n2cccc23)c(OC)c1 [Compound 578] | ≤ 2000 nM
44 | CC(C)S(=O)(=O)c1ccc(C(=O)N2CCC3(CC2)Oc2ccccc2-n2cccc23)cc1 [Compound 579] | ≤ 2000 nM
45 | CC(C)NS(=O)(=O)c1ccc(C(=O)N2CCC3(CC2)Oc2ccc(F)cc2-c2nn(C)cc23)cc1 [Compound 580] | ≤ 2000 nM
46 | CC(C)Oc1ccc(C(=O)N2CCC3(CC2)Oc2ccccc2-c2c3cnn2C)c(Cl)c1 [Compound 581] | ≤ 2000 nM
47 | CCn1ncc2c1-c1ccccc1OC21CCN(C(=O)c2ccc(S(C)(=O)=O)c(C)c2)CC1 [Compound 582] | ≤ 2000 nM
48 | Cc1cc(C(=O)N2CCC3(CC2)Oc2ccccc2-c2c3ncn2C)ccc1OC(C)C [Compound 583] | ≤ 2000 nM
49 | COc1cc(C(=O)N2CCC3(CC2)Oc2ccccc2-n2cccc23)ccc1OCC(=O)O [Compound 585] | 2000 to 5000 nM
50 | COc1cc(C(=O)N2CCC3(CC2)Oc2ccccc2-c2c3cnn2C)ccc1S(=O)(=O)C(C)C [Compound 586] | > 5000 nM

Row | SMILES | IC50
51 | COCCOc1ccc(C(=O)N2CCC3(CC2)Oc2ccccc2-c2c3cnn2C)cc1Cl [Compound 587] | ≤ 2000 nM
52 | COc1cc(C(=O)N2CCC3(CC2)Oc2cc(F)ccc2-n2cccc23)ccc1OC[C@@H](O)CO [Compound 588] | ≤ 2000 nM
53 | COc1cc(C(=O)N2CCC3(CC2)Oc2ccccc2-c2nn(CC(F)(F)F)cc23)ccc1OCCC(C)C [Compound 589] | ≤ 2000 nM
54 | CCNS(=O)(=O)c1ccc(C(=O)N2CCC3(CC2)Oc2ccccc2-n2c(C(F)(F)F)ccc23)cc1 [Compound 590] | ≤ 2000 nM
55 | COc1cc(C(=O)N2CCC3(CC2)Oc2cc(F)ccc2-n2cccc23)ccc1O[C@H]1CCOC1 [Compound 592] | ≤ 2000 nM
56 | Cn1ncc2c1-c1ccccc1OC21CCN(C(=O)c2ccccc2OCC(F)(F)F)CC1 [Compound 593] | ≤ 2000 nM
57 | CC(C)n1ncc2c1-c1ccccc1OC21CCN(C(=O)c2ccc(S(=O)(=O)C(C)C)cc2)CC1 [Compound 594] | ≤ 2000 nM
58 | Cn1cc2c(n1)-c1ccccc1OC21CCN(C(=O)c2ccc3[nH]ncc3c2)CC1 [Compound 595] | ≤ 2000 nM
59 | COCCOc1ccc(C(=O)N2CCC3(CC2)Oc2ccccc2-n2c(C)ccc23)cc1OC [Compound 596] | ≤ 2000 nM
60 | Cn1cc2c(n1)-c1ccccc1OC21CCN(C(=O)c2ccc(CC(C)(C)O)cc2)CC1 [Compound 598] | ≤ 2000 nM
61 | CC(C)Oc1ccc(C(=O)N2CCC3(CC2)Oc2ccccc2-c2c3cnn2C)c(F)c1 [Compound 599] | ≤ 2000 nM
62 | Cn1ncc2c1-c1ccccc1OC21CCN(C(=O)c2cn(C)c3cccnc23)CC1 [Compound 600] | ≤ 2000 nM
63 | COc1ccc(-n2ncc(C(=O)N3CCC4(CC3)Oc3ccccc3-c3c4cnn3C)c2C)cc1 [Compound 601] | ≤ 2000 nM
64 | COc1cc(C(=O)N2CCC3(CC2)Oc2ccccc2-n2cccc23)ccc1OCCC(C)C [Compound 602] | ≤ 2000 nM
65 | COc1c(C)cccc1C(=O)N1CCC2(CC1)Oc1cc(Cl)ccc1-n1cccc12 [Compound 605] | ≤ 2000 nM
66 | CC(C)(O)c1ccc(C(=O)N2CCC3(CC2)Oc2ccccc2-n2c3ccc2S(C)(=O)=O)cc1 [Compound 607] | 2000 to 5000 nM
67 | Cc1cccc(C(=O)N2CCC3(CC2)Oc2ccccc2-c2c3cnn2C)c1OC(C)C [Compound 608] | ≤ 2000 nM
68 | COc1cc(C(=O)N2CCC3(CC2)Oc2cc(Cl)ccc2-n2cccc23)ccc1C(C)CO (stereo not drawn) [Compound 609] | ≤ 2000 nM
69 | Cc1cc(C(=O)N2CCC3(CC2)Oc2ccccc2-c2c3cnn2C)ccc1OC(C)(C)C [Compound 610] | ≤ 2000 nM
70 | Cc1nc2ccc(C(=O)N3CCC4(CC3)Oc3ccccc3-c3nn(C)cc34)cc2s1 [Compound 611] | ≤ 2000 nM
71 | COc1cc(C(=O)N2CCC3(CC2)Oc2cc(F)ccc2-n2cccc23)ccc1C1(O)COC1 [Compound 612] | ≤ 2000 nM
72 | CC(C)S(=O)(=O)c1ccc(C(=O)N2CCC3(CC2)Oc2ccccc2-c2c3cnn2C)cc1 [Compound 613] | ≤ 2000 nM
73 | COc1cccc(F)c1C(=O)N1CCC2(CC1)Oc1ccccc1-n1c2ccc1S(C)(=O)=O [Compound 614] | 2000 to 5000 nM
74 | COc1cc(C(=O)N2CCC3(CC2)Oc2cc(F)ccc2-c2c3cnn2C)ccc1OC(C)C [Compound 617] | ≤ 2000 nM
75 | O=C(c1ccccc1OC(F)F)N1CCC2(CC1)Oc1ccccc1-n1c(C(F)(F)F)ccc12 [Compound 618] | ≤ 2000 nM
